Measurements as given in patent US4201865A, “Novel prostaglandin analogues” (Gruppo Lepetit S.p.A., priority 1978, dated 1980).

System: acidic gastric secretion
Test: inhibition of the acidic gastric hypersecretion induced by histamine in dogs (gastric fistula and Haidenhain pouche)
Type: in vivo, mongrel dogs
Conditions: mean of four dogs; for % inhibition of the acidic gastric secretion over the controls in the H.P.: histamine 160 μg kg^-1 h^-1, denervated Haidenhain pouche; for % inhibition of the acidic gastric secretion over the controls in the G.F.: histamine 160 μg kg^-1 h^-1, innervated gastric fistula (main stomach)
Procedure: In the actual practice, the gastric antisecretory properties were evaluated on the basis of their effectiveness in inhibiting the hyperacidity induced by hystamine in dogs. Hystamine, which is a potent stimulator of the acidic gastric secretion (see Bertaccini et al. Eur. Journ. Pharmacol., 28, 360, 1974), was administered intravenously by continuous infusion during the experiments.
A group of four mongrel dogs weighing approximately 20 Kg was used in each experiments.
The dogs were surgically operated in the stomachs according to the method described by Bertaccini et al. (see above), in order to provide each animal with an innervated gastric fistula (G.F.) or main stomach, and a denervated Haidenhain pouche (H.P.).
The main stomach and the Haidenhain pouche were each equipped with a cannula in order to allow the gastric juices to drain to the exterior by gravity. The two surgically prepared cavities allow to determine if the antisecretory effect has to be ascribed to a direct action of the tested compounds on the oxyntic cells ie., the cells of the gastric walls secreting acidity, (inhibition of the hyperacidity produced both by G.F. and H.P.) or if it is mediated by the autonomous nervous system (inhibition of the hyperacidity produced only by G.F.). After a period of four to five weeks which was allowed to the animals for recovery, the dogs were administered intravenously with histamine in the amount of 160 micrograms of hystamine per kg. of body weight per hour (160 μg-kg^-1 h^-1) in order to stimulate the acidic secretion both in the G.F. and in the H.P. The maximum secretory effect was reached after approximately 1 hour and the infusion of histamine was prolonged for approximately three further hours. During the whole period of infusion, the acidic output was collected every ten minutes and titrated by means of NaOH 0.1 to pH 7.0 on an automatic titrator (Radiometer, Copenhagen). The so-obtained values (mean of four dogs) were considered as the "control values". Food, but not water, was withheld 18 hours before each experiments. At the beginning, the dogs were administered with 160 μg kg^-1 h^-1 of histamine. After reaching the maximum secretory value ie., approximately after 1 hour, the compound to be tested was administered intravenously at predetermined dosages per kg. of body weight during one hour, while the infusion of histamine at the above dosage was carried on. During this period the acidic output both from the G.F. and H.P. was collected every ten minutes and titrated as described above.
By means of the so obtained values (mean of four dogs) and the corresponding "control values" ie., the values obtained by determining the acidic output for one hour after the maximum secretory effect due to histamine was reached, it was possible to establish, by obvious calculations, the percent inhibition of the acidic gastric secretion both from the G.F. and the H.P. of the tested compounds versus the controls.
Representative experiments have shown that dosages varying from about 50 to about 100 μg/kg hour practically block the gastric hyperacidity induced by histamine both in the G.F. and in the H.P. This can be seen from the following table, wherein the results obtained by testing the compound of example 2 having [α]D^20 =-77.7 (c=0.67% in CHCl3) and the compound of example 5 having [α]D^20 =-45 (c=0.46% in CHCl3) are reported: […]

[1] = 10 μg kg^-1 h^-1, intravenous during one hour
[2] = 25 μg kg^-1 h^-1, intravenous during one hour
[3] = 50 μg kg^-1 h^-1, intravenous during one hour
[4] = 100 μg kg^-1 h^-1, intravenous during one hour

| Structure (SMILES) | % inhibition of the acidic gastric secretion over the controls in the H.P. [1] [%] | % inhibition of the acidic gastric secretion over the controls in the G.F. [1] [%] | % inhibition of the acidic gastric secretion over the controls in the H.P. [2] [%] | % inhibition of the acidic gastric secretion over the controls in the G.F. [2] [%] | % inhibition of the acidic gastric secretion over the controls in the H.P. [3] [%] | % inhibition of the acidic gastric secretion over the controls in the G.F. [3] [%] | % inhibition of the acidic gastric secretion over the controls in the H.P. [4] [%] | % inhibition of the acidic gastric secretion over the controls in the G.F. [4] [%] |
| --- | --- | --- | --- | --- | --- | --- | --- | --- |
| CCCCC(OC)C(O)/C=C/[C@H]1[C@H](O)CC(=O)[C@@H]1C/C=C\CCCC(=O)OC (single isomer, unassigned) [Example 2, 11α, 15-Dihydroxy-16-methoxy-9-oxo-prosta-5(Z),13(E)-diene-1-oic-acid methyl esters] | 25 | 25 | 50 | 50 | 95 | 95 |  |  |
| CCCCC(C)(OC)C(O)/C=C/[C@H]1[C@H](O)CC(=O)[C@@H]1C/C=C\CCCC(=O)OC (single isomer, unassigned) [Example 5, 11α,15-Dihydroxy-16-methyl-16-methoxy-9-oxo-prosta-5(Z), 13(E)-diene-1-oic acid methyl esters] | 20 | 20 |  |  | 55 | 55 | 100 | 100 |
